# Test results as given in publication PMC9403976, “Elucidating the path to Plasmodium prolyl-tRNA synthetase inhibitors that overcome halofuginone resistance” (Nature Communications, 2022).
# Values joined by “and” are separate entries in the source; they are usually repeats but may differ in a detail not shown here. Identical values can stand only once. Like-named read-outs stand apart in the source and are kept apart here.
# Experiments:
# HsProRS = HsProRS (Homo sapiens, UniProt P07814); assay: TR-FRET ligand displacement assay with tracer MAT379 (CoraFluor-1-Halo and anti-His6 antibody formats); assay type: binding; design: made in house; host or cells: E. coli SoluBL-21; conditions: for TR-FRET dose-response, normalized signal (SI Fig 11): individual replicates
# Chain of HsProRS (P07814 996-1512): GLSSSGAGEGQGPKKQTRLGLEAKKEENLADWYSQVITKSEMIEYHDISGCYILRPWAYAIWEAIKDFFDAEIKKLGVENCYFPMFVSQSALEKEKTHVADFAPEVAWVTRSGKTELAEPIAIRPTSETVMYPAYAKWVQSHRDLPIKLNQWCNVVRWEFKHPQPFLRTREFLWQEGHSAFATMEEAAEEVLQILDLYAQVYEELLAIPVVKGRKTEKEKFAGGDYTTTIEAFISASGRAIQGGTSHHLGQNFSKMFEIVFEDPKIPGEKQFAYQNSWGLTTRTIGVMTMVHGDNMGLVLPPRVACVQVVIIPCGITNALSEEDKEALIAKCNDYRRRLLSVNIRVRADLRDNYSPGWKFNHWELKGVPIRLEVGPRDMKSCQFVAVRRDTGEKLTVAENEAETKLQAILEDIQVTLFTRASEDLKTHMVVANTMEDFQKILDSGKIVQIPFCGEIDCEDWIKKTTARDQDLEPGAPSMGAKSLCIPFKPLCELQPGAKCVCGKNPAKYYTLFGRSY
# P. falciparum Dd2-2D4 = assay: P. falciparum asexual blood stage (ABS) growth assay, SYBR Green, 72 h, wild-type parasites; assay type: cell-based, Plasmodium falciparum; conditions: wildtype (Dd2-2D4); 10 μM
# Experimental: Parasites were maintained under standard culture conditions as described previously[56],[57]. […] The P. falciparum Dd2 cell lines used in this study (Dd2-2D4, halofuginone-induced, and HFGR-I) have previously undergone whole genome sequencing in our labs.
# This assay was performed as previously described[8]. In short, P. falciparum erythrocytic-stage parasites at 1% parasitemia and 1% hematocrit in RPMI + 0.5% Albumax were seeded at 40 μL/well in 384-well plates with test compounds in triplicate, dose-response format with 10 μM dihydroartemisinin as a kill-control and blank (no compound) wells as a growth-control. […] After 72 h, growth was quantified by measuring fluorescence (Molecular Devices SpectraMax iD5) following SYBR Green 1 staining. Data were analyzed in Excel and plotted in PRISM (V. 8.4.3–9.1.0, GraphPad).
# PfcProRS = target: T1, PfcProRS (Plasmodium falciparum, UniProt Q8I5R7); assay type: binding; conditions: for dose-response signal (normalized), SI Fig 8: single replicates
# T1 construct: made in house; host or cells: E. coli SoluBL-21
# T1 sequence (Q8I5R7 249-746): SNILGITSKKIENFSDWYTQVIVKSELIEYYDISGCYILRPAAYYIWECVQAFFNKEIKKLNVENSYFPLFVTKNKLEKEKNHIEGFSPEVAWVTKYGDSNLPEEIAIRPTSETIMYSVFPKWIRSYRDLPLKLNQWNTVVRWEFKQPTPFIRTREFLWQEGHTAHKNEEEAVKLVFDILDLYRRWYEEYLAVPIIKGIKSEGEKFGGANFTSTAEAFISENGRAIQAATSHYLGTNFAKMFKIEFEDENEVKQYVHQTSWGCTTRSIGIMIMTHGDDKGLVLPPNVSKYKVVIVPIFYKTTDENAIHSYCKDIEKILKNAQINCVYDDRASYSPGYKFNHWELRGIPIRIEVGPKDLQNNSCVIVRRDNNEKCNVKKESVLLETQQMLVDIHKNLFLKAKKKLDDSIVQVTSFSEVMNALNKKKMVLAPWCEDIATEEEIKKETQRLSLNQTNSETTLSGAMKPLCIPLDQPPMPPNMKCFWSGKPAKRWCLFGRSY
smiles,measurement,setting,value
C[C@@H]1CCC[C@H](C)N1C(=O)Nc1nccnc1C(=O)NC1Cc2ccccc2C1 [compound 19],IC50,HsProRS,> 10 µM
same,Kd,"HsProRS; HsProRS (KD [nM]) + 100 μM proline mean, + 100 μM proline",1320 nM
same,"normalized TR-FRET ligand displacement signal, dose-response replicates (SI Fig 6)",HsProRS; Log[inhibitor] (M) -5.000,6.53E-01 and 6.39E-01 and 5.91E-01
same,"TR-FRET dose-response, normalized signal (SI Fig 11)",HsProRS; Log[inhibitor] (M) -5.000,8.15E-01 and 7.82E-01 and 8.24E-01
same,"normalized TR-FRET ligand displacement signal, dose-response replicates (SI Fig 6)",HsProRS; Log[inhibitor] (M) -5.301,8.82E-01 and 7.60E-01 and 7.73E-01
same,"TR-FRET dose-response, normalized signal (SI Fig 11)",HsProRS; Log[inhibitor] (M) -5.301,9.03E-01 and 8.79E-01 and 9.19E-01
same,"normalized TR-FRET ligand displacement signal, dose-response replicates (SI Fig 6)",HsProRS; Log[inhibitor] (M) -5.601,8.80E-01 (2×) and 8.74E-01
same,"TR-FRET dose-response, normalized signal (SI Fig 11)",HsProRS; Log[inhibitor] (M) -5.602,9.30E-01 and 1.01E+00 and 9.11E-01
same,"normalized TR-FRET ligand displacement signal, dose-response replicates (SI Fig 6)",HsProRS; Log[inhibitor] (M) -5.904,9.78E-01 and 8.58E-01 and 8.56E-01
same,"TR-FRET dose-response, normalized signal (SI Fig 11)",HsProRS; Log[inhibitor] (M) -5.904,9.97E-01 and 1.07E+00 and 9.73E-01
same,"TR-FRET dose-response, normalized signal (SI Fig 11)",HsProRS; Log[inhibitor] (M) -6.205,1.07E+00 and 9.89E-01 and 1.03E+00
same,"normalized TR-FRET ligand displacement signal, dose-response replicates (SI Fig 6)",HsProRS; Log[inhibitor] (M) -6.208,1.01E+00 and 9.70E-01 and 9.45E-01
same,"TR-FRET dose-response, normalized signal (SI Fig 11)",HsProRS; Log[inhibitor] (M) -6.506,1.02E+00 and 1.05E+00 and 9.88E-01
same,"normalized TR-FRET ligand displacement signal, dose-response replicates (SI Fig 6)",HsProRS; Log[inhibitor] (M) -6.509,9.25E-01 and 1.05E+00 and 8.66E-01
same,"normalized TR-FRET ligand displacement signal, dose-response replicates (SI Fig 6)",HsProRS; Log[inhibitor] (M) -6.796,1.10E+00 and 9.97E-01 and 1.01E+00
same,"TR-FRET dose-response, normalized signal (SI Fig 11)",HsProRS; Log[inhibitor] (M) -6.796,9.68E-01 and 1.04E+00 and 9.56E-01
same,"TR-FRET dose-response, normalized signal (SI Fig 11)",HsProRS; Log[inhibitor] (M) -7.097,1.08E+00 (2×) and 9.97E-01
same,"normalized TR-FRET ligand displacement signal, dose-response replicates (SI Fig 6)",HsProRS; Log[inhibitor] (M) -7.108,1.04E+00 (2×) and 1.01E+00
same,"TR-FRET dose-response, normalized signal (SI Fig 11)",HsProRS; Log[inhibitor] (M) -7.407,1.09E+00 and 9.94E-01 and 1.12E+00
same,"normalized TR-FRET ligand displacement signal, dose-response replicates (SI Fig 6)",HsProRS; Log[inhibitor] (M) -7.409,9.88E-01 and 9.12E-01 and 1.00E+00
same,"TR-FRET dose-response, normalized signal (SI Fig 11)",HsProRS; Log[inhibitor] (M) -7.708,1.07E+00 and 1.00E+00 and 1.08E+00
same,"normalized TR-FRET ligand displacement signal, dose-response replicates (SI Fig 6)",HsProRS; Log[inhibitor] (M) -7.710,9.99E-01 and 1.02E+00 and 9.53E-01
same,"normalized TR-FRET ligand displacement signal, dose-response replicates (SI Fig 6)",HsProRS; Log[inhibitor] (M) -8.000,9.74E-01 and 8.92E-01 and 8.64E-01
same,"TR-FRET dose-response, normalized signal (SI Fig 11)",HsProRS; Log[inhibitor] (M) -8.018,1.06E+00 and 1.03E+00 and 1.01E+00
same,"normalized TR-FRET ligand displacement signal, dose-response replicates (SI Fig 6)",HsProRS; Log[inhibitor] (M) -8.301,9.68E-01 and 9.13E-01 and 9.38E-01
same,"TR-FRET dose-response, normalized signal (SI Fig 11)",HsProRS; Log[inhibitor] (M) -8.319,9.44E-01 and 9.92E-01 and 9.43E-01
same,"normalized TR-FRET ligand displacement signal, dose-response replicates (SI Fig 6)",HsProRS; Log[inhibitor] (M) -8.602,9.46E-01 and 9.29E-01 and 1.00E+00
same,"TR-FRET dose-response, normalized signal (SI Fig 11)",HsProRS; Log[inhibitor] (M) -8.620,1.03E+00 and 1.01E+00 and 7.25E-01
same,"TR-FRET dose-response, normalized signal (SI Fig 11)",HsProRS; Log[inhibitor] (M) -8.921,1.02E+00 and 9.26E-01 and 9.67E-01
same,"normalized TR-FRET ligand displacement signal, dose-response replicates (SI Fig 6)",HsProRS; Log[inhibitor] (M) -9.000,9.21E-01 and 9.72E-01 and 9.38E-01
same,"TR-FRET dose-response, normalized signal (SI Fig 11)",HsProRS; Log[inhibitor] (M) -9.097,9.79E-01 and 1.10E+00 and 1.04E+00
same,"normalized TR-FRET ligand displacement signal, dose-response replicates (SI Fig 6)",HsProRS; Log[inhibitor] (M) -9.301,8.73E-01 and 8.54E-01 and 9.42E-01
same,HsProRS % signal at 10 μM,"HsProRS; no added proline/ATP (-), 10 μM",80.7%
same,"% signal at 10 μM, wildtype (Dd2-2D4)",P. falciparum Dd2-2D4,67.3%
same,"dose-response signal (normalized), SI Fig 8",PfcProRS; Log[inhibitor] (M) -5.000,3.96E-01 and 1.71E-01 and 2.62E-01
same,"dose-response signal (normalized), SI Fig 8",PfcProRS; Log[inhibitor] (M) -5.301,5.52E-01 and 5.02E-01 and 5.09E-01
same,"dose-response signal (normalized), SI Fig 8",PfcProRS; Log[inhibitor] (M) -5.601,8.00E-01 and 7.91E-01 and 8.42E-01
same,"dose-response signal (normalized), SI Fig 8",PfcProRS; Log[inhibitor] (M) -5.904,7.54E-01 and 9.47E-01 and 8.47E-01
same,"dose-response signal (normalized), SI Fig 8",PfcProRS; Log[inhibitor] (M) -6.208,1.02E+00 and 9.13E-01 and 1.08E+00
same,"dose-response signal (normalized), SI Fig 8",PfcProRS; Log[inhibitor] (M) -6.509,9.59E-01 and 1.03E+00 and 9.76E-01
same,"dose-response signal (normalized), SI Fig 8",PfcProRS; Log[inhibitor] (M) -6.796,1.09E+00 and 1.00E+00 and 1.08E+00
same,"dose-response signal (normalized), SI Fig 8",PfcProRS; Log[inhibitor] (M) -7.108,9.66E-01 and 9.00E-01 and 9.04E-01
same,"dose-response signal (normalized), SI Fig 8",PfcProRS; Log[inhibitor] (M) -7.409,9.53E-01 and 1.01E+00 and 9.35E-01
same,"dose-response signal (normalized), SI Fig 8",PfcProRS; Log[inhibitor] (M) -7.710,1.09E+00 and 9.53E-01 and 1.01E+00
same,"dose-response signal (normalized), SI Fig 8",PfcProRS; Log[inhibitor] (M) -8.000,1.12E+00 and 1.07E+00 and 9.69E-01
same,"dose-response signal (normalized), SI Fig 8",PfcProRS; Log[inhibitor] (M) -8.301,1.02E+00 (2×) and 1.14E+00
same,"dose-response signal (normalized), SI Fig 8",PfcProRS; Log[inhibitor] (M) -8.602,1.07E+00 and 8.94E-01 and 1.04E+00
same,"dose-response signal (normalized), SI Fig 8",PfcProRS; Log[inhibitor] (M) -9.000,1.15E+00 and 8.96E-01 and 9.87E-01
same,"dose-response signal (normalized), SI Fig 8",PfcProRS; Log[inhibitor] (M) -9.301,8.48E-01 and 9.64E-01 and 1.02E+00
same,PfcProRS -- best Kd,"PfcProRS; SI Fig 16a, values on -log scale",5.928
